Series [1] deals with NIH-3T3 cells. Kind of series: Cytotoxicity on cell growth, MTT test. It is filed as cell-based. The conditions noted are these: 72 hours. As to the method: The cells are seeded (10 000 cells/well) in 96-well plates and incubated for 24 hours at 37° C. under 5% CO2. Varied concentrations of mitoxantrone (from 0 to 20 μM in a constant final volume of 100 μL) are then added with an equal volume of each of the test compounds. The cells are then left to divide for 72 hours. The cytotoxicity is evaluated colorimetrically with 3-(4,5-dimethylthiazol-2-yl)-2,5-diphenyltetrazolium bromide (MTT).
Increasing concentrations of compound (IB.1) are applied to NIH-3T3 cells expressing or not expressing ABCB1, and whose residual vitality is evaluated after 72 hours of treatment by an MTT test. The results are illustrated in FIG. 9, in which the cells expressing ABCB1 are represented by empty circles, and those not expressing it by solid circles. […] It increases by 30-40% thereafter, but however remains limited to this value, up to a concentration equivalent to 40 times its IC50, whether or not ABCB1 is expressed.

Series [2] deals with ABCG2. Put plainly: Estimation of the level of expression of ABCG2 (western blot). Particulars: 5 μM, 3 h to 72 h. The format is cell-based, human. As to the method: Estimation of the level of expression of ABCG2. The cells HEK293 pcDNA3.1 or HEK293 pcDNA3.1 BCRP are seeded in sixteen 6 cm^2 Petri dishes and incubated for 24 hours at 37° C. under 5% CO2. After this incubation, the various wells are supplemented with 30 μL either of DMSO (controls) or of compound IA.2 dissolved in DMSO, corresponding to a final concentration after dilution of 5 μM. After 3 h, 24 h, 48 h or 72 h of incubation, the cells are trypsinized and centrifuged at 200 g for 5 minutes. The protein fraction is extracted with a hypotonic lysis buffer (10 mM Tris-Cl pH 7.5, 10 mM NaCl, 1 mM MgCl2, 1 mM DTT, protease inhibitors) and assayed with bicinchoninic acid (Sigma-Aldrich). Ten micrograms of this fraction are deposited on polyacrylamide gel of Laemmli type (U. K. Laemmli, Nature 1970, 227, 680) to separate the proteins, which are then transferred onto polyvinyl fluoride (pvdf) membrane for 60 minutes at 100 mA in a 10 mM CAPS pH 11.1 […] buffer, 10% methanol (Sigma-Aldrich). The pvdf membrane is then saturated for 30 minutes in a solution of powdered skimmed milk at 1% (w/v) in TBST buffer (Tris buffer saline 1×, Tween 20 0.1%). […] Revelation is performed using the “immobilon western” kit (Millipore) with the QuantityOne software (Biorad). […]

The target of series [3] is T1, ABCG2 (Homo sapiens, UniProt Q9UNQ0).
T1 sequence (Q9UNQ0 1-655): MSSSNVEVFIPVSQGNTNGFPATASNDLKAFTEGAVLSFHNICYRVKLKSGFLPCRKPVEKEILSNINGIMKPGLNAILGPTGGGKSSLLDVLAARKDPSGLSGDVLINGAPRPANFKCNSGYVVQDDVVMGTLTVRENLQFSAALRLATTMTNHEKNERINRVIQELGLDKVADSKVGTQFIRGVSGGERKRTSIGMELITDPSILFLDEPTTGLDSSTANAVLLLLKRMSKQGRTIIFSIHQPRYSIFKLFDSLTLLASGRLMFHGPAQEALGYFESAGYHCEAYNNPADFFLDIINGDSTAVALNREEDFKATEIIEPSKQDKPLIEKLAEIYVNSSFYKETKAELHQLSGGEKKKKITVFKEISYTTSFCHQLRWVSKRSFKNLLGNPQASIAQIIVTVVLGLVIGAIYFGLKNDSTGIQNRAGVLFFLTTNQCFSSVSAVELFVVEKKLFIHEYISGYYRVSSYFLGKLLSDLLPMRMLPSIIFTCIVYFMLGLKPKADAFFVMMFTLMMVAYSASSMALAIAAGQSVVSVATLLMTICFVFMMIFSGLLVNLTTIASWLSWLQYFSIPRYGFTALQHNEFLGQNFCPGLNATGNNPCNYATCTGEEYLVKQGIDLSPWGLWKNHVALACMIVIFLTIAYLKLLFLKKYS
Put plainly: Type of inhibition: mitoxantrone efflux by ABCG2 at varied substrate and inhibitor concentrations (FIG. 2). It is filed as cell-based. The conditions noted are these: for type of inhibition of ABCG2: mitoxantrone 0 to 20 μM, inhibitor 0 to 20 μM. The arrangement: expressed in transfected cells; host or cells: HEK-293 transfected with pcDNA3.1-ABCG2. The protocol: The efflux of mitoxantrone by ABCG2 was measured at substrate concentrations ranging from 0 to 20 μM (panels A-C) in the presence or absence of fixed concentrations of compound (IA.2) in a range from 0 to 20 μM (panels D-E). In FIG. 2, the results obtained by varying the […] concentration are presented as a representation, which is either direct in panel A or of Lineweaver-Burke form in panel B or of Eadie-Hofstee form in panel C. The results obtained by varying the […] concentration are presented in linear (panel D) or logarithmic (panel E) x-axis scale. The curves were adjusted by means of the SigmaPlot software.
This is confirmed by the Lineweaver-Burke and Eadie-Hofstee representations presented, respectively, in FIG. 2B and FIG. 2C. The representations of these two graphs are characteristic of this type of inhibition. The inhibition constant K of compound (IA.2) is estimated as about 1 μM from the adjustment of the points of FIG. 2D or FIG. 2E.

“Also recorded” adds a separate entry of the source.

As for `CC(C)(C)OC(=O)N[C@H](CNN(CCCCCCNC(=O)OCc1ccccc1)C(=O)OC(C)(C)C)CC(=O)OCc1ccccc1` [IB.1, Benzyl ester of (3S)-4-[2-(6-benzyloxycarbonylaminohexyl)-2-tert-butoxycarbonylhydrazino]-3-tert-butoxycarbonylaminobutyric acid], in series [1] (above 5 times and up to 40 times its IC50, expressing or not ABCB1), the “increase of cytotoxicity on NIH-3T3 cells” value was 30-40%. Moreover, in series [1] (cells expressing or not ABCB1), the “harmlessness on NIH-3T3 cells” value is “harmlessness”. Moreover, the “cytotoxicity on NIH-3T3 cells” value in series [1] (up to 5 times its IC50) is reported as “negligible”.

With `CC(C)(C)OC(=O)NN(C(=O)N[C@@H](CCCCNC(=O)OCc1ccccc1)C(=O)OC(C)(C)C)c1cccc(C(=O)OCc2ccccc2)c1` [IA.2, tert-Butyl ester of (2S)-6-(benzyloxycarbonylamino)-2-[1-(3′-(benzyloxycarbonyl)phenyl)-2-(tert-butoxycarbonyl)hydrazino-carbonylamino]hexanoic acid], the “level of expression of ABCG2” value in series [2] (HEK293 BCRP cells, vs DMSO) is “reduces the level of expression; also recorded: decrease in the level of expression”. Moreover, the “level of expression of tubulin (control protein)” value in series [2] (HEK293 cells) is reported as “without affecting”. In series [3] (ABCG2, mitoxantrone efflux, from adjustment of FIG. 2D or 2E, read-out: inhibition constant K), the Ki was roughly 1000 nM. The “type of inhibition of ABCG2” value in series [3] is “noncompetitive inhibitor”.

Consider `CC(C)(C)OC(=O)N[C@H](CNN(CCCCCCNC(=O)OCc1ccccc1)C(=O)OCc1ccccc1)CC(=O)OCc1ccccc1` [IB.11, Benzyl ester of (3S)-4-[2-benzyloxycarbonyl-2-(6-benzyloxycarbonylaminohexyl)hydrazino]-3-tert-butoxycarbonyl-aminobutyric acid], for which the “type of inhibition of ABCG2” value in series [3] is on record as “noncompetitive”.

The values above are taken from US20120010161A1, “NOVEL AZAPEPTIDE OR AZAPEPTIDOMIMETIC COMPOUNDS INHIBITING BCRP AND/OR P-GP” (CENTRE NATIONAL DE LA RECHERCHE SCIENTIFIQUE, priority 2009, published 2012).
